Legend:
[1] = molecular target: T1, Tie2 receptor tyrosine kinase (Homo sapiens, UniProt Q02763); assay: In vitro receptor tyrosine kinase inhibition assay (Test (a)), ELISA based; type: biochemical; settings: recombinant human Tie2 kinase domain
T1 construct: consist of only the intracellular portion C-terminal portion of the respective receptor, within which is found the kinase domain; made in house; host or cells: baculovirus/Sf21 insect cells (or alternative equivalent); used as cleared cell lysate
T1 sequence (Q02763 770-1124 limits assumed): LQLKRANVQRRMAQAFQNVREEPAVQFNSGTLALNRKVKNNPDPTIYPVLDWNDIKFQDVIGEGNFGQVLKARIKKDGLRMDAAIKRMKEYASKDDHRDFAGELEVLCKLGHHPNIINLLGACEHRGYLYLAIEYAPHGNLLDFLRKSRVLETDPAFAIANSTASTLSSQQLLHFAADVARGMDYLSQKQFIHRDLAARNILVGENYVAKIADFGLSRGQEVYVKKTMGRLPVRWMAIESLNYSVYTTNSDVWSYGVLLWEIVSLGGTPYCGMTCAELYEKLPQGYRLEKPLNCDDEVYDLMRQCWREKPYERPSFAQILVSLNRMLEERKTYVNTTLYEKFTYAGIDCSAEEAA
Description: a. In Vitro Receptor Tyrosine Kinase Inhibition Assay
To test for inhibition of Tie2 receptor tyrosine kinase, compounds are evaluated in a non-cell based protein kinase assay by their ability to inhibit the protein kinase enzyme phosphorylation of a tyrosine containing polypeptide substrate in an ELISA based microtitre plate assay. In this particular case, the assay was to determine the IC50, for three different recombinant human tyrosine kinases Tie2, KDR and Flt.
To facilitate production of the tyrosine kinases, recombinant receptor genes were produced using standard molecular biology cloning and mutagenesis techniques. These recombinant proteins fragments encoded within these genes consist of only the intracellular portion C-terminal portion of the respective receptor, within which is found the kinase domain. The recombinant genes encoding the kinase domain containing fragments were cloned and expressed in standard baculovirus/Sf21 system (or alternative equivalent) […]
Constitutive kinase activity of these recombinant proteins was determined by their ability to phosphorylate a synthetic peptide (made up of a random co-polymer of Glutamic Acid, Alanine and Tyrosine in the ratio of 6:3:1). […]
The immobilised phospho-peptide product of the reaction was detected by immunological methods. […] Following extensive washing with PBS-T, HRP activity in each well of the plate was measured colorimetrically using 22′-Azino-di-[3-ethylbenzthiazoline sulfonate (6)]diammonium salt crystals ABTS (Sigma P4922—prepared as per manufactures instructions) as a substrate incubated for 30-45 minutes to allow colour development, before 100 ul of 1M H2SO4 was added to stop the reaction.
Quantification of colour development and thus enzyme activity was achieved by the measurement of absorbance at 405 nm on a Molecular Devices ThermoMax microplate reader. Kinase inhibition for a given compound was expressed as an IC50 value. […] The range of phosphorylation was calculated from the positive (vehicle plus ATP) and negative (vehicle minus ATP) control values.

Tie2 receptor = molecular target: T2, Tie2 receptor (Homo sapiens, UniProt Q02763); assay: Cellular Tie2 autophosphorylation assay (Test (b)); type: cell-based; settings: Ang1 ligand stimulated whole cells, e.g. EA.hy926/B3; read-out: IC50 (μM) Test (b): Inhibition of autophosphorylation of Tie2 receptor tyrosine kinase
T2 construct: natural cell lines or primary cells which are known to express the receptor of choice; endogenous in cells; host or cells: EA.hy926/B3 cells (HUVEC named as an alternative)
T2 sequence (Q02763 23-1124): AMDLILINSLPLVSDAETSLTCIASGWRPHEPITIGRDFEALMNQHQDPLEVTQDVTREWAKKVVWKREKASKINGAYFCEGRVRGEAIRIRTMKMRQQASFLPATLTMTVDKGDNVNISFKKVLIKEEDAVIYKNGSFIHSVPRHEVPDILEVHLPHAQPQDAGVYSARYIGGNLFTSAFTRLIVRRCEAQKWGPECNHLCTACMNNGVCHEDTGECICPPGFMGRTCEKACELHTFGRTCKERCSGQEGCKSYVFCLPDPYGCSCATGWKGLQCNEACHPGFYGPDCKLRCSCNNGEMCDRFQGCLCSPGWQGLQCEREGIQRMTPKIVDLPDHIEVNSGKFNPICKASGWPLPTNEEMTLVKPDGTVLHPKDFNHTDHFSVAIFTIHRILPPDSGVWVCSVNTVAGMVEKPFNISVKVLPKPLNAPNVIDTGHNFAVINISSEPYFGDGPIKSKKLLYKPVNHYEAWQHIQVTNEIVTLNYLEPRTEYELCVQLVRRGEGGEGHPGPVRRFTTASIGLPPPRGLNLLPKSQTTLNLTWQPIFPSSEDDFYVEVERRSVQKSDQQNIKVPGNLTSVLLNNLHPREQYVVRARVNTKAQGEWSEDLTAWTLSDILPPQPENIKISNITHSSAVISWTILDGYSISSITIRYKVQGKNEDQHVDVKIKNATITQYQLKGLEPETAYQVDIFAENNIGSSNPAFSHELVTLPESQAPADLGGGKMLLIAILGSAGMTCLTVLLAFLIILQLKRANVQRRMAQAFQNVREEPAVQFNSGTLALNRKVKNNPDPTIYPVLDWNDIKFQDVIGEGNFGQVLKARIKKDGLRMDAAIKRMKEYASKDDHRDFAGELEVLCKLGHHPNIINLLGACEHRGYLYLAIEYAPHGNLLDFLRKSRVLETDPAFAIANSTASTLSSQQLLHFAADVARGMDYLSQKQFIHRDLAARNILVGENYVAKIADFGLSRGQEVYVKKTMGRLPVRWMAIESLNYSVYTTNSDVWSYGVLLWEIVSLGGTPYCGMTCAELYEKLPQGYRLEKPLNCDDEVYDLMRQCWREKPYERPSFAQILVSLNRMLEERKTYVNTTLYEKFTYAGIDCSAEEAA
From the text: b. Cellular Tie2 Autophosphorylation Assay
This assay is based on measuring the ability of compounds to inhibit autophosphorylation of the Tie2 receptor which normally leads to the production of “activated” receptor that in turn initiates the particular signal transduction pathways associated with the receptor function.
Autophosphorylation can be achieved by a number of means. It is known that expression of recombinant kinase domains in baculoviral systems can lead to the production of phosphorylated and activated receptor. It is also reported that over expression of receptors in recombinant cell lines can itself lead to receptor autophosphorylation in the absence of the ligand (Heldin C-H. 1995 Cell: 80, 213-223; Blume-J. P, Hunter T. 2001 Nature: 411, 355-65). Furthermore, there are numerous literature examples in which chimaeric receptors have been constructed. In these cases the natural, external cell surface domain of the receptor has been replaced with that of a domain which is known to be readily dimerised via the addition of the appropriate ligand (e.g. TrkA-Tie2/NGF ligand (Marron, M. B., et al., 2000 Journal of Biological Chemistry: 275:39741-39746) or C-fins-Tie-1/CSF-1 ligand (Kontos, C. D., et al., 2002 Molecular and Cellular Biology: 22, 1704-1713). Thus when the chimaeric receptor expressed in a host cell line and the respective ligand is added, this induces autophosphorylation of the chimeric receptor's kinase domain. This approach has the advantage of often allowing a known (and often easily obtained) ligand to be used instead of having to identify and isolate the natural ligand for each receptor of interest.
Naturally if the ligand is available one can use natural cell lines or primary cells which are known to express the receptor of choice and simply stimulate with ligand to achieve ligand induced phosphorylation. […]

IC50 [1] [µM] | IC50 (Tie2 receptor) [µM] | Compound
19.9 | 0.337 | Cc1cc(NC(=O)Nc2cccc(C#Cc3cnc(N)nc3)c2)on1 [Example 19, N-{3-[(2-aminopyrimidin-5-yl)ethynyl]phenyl}-N′-(3-methylisoxazol-5-yl)urea]
5.7 | 2.59 | CC(C)(C)c1cc(NC(=O)Nc2cccc(C#Cc3cnc(NCCN4CCCC4)nc3)c2)no1 [Example 33, N-(5-tert-butylisoxazol-3-yl)-N′-[3-({2-[(2-pyrrolidin-1-ylethyl)amino]pyrimidin-5-yl}ethynyl)phenyl]urea]
74.9 | 3.29 | CC(C)(C)c1nnc(NC(=O)Nc2cccc(C#Cc3cnc(NCCN4CCCC4)nc3)c2)s1 [Example 48, N-(5-tert-butyl-1,3,4-thiadiazol-2-yl)-N′-[3-({2-[(2-pyrrolidin-1-ylethyl)amino]pyrimidin-5-yl}ethynyl)phenyl]urea]

Source: patent US20080108608A1, “Pyrimidines With Tie2 (Tek) Activity” (ASTRAZENECA AB, priority 2003, published 2008)
